Measured values from PMC7537338, “CD47/SIRPα blocking peptide identification and synergistic effect with irradiation for cancer immunotherapy” (Journal for Immunotherapy of Cancer, 2020).
Read-outs that look alike come from different tables or passages of the source. One block for each molecule: values may come before it. Where a SMILES comes first, the peptide text is derived from it. Where no end group is shown, it is not given here. [ ]: non-standard residue; d: D form.

Columns and labels:
[1] = target: T1, human CD47/SIRPα interaction (Homo sapiens, UniProt Q08722); experiment: Blocking assay, human CD47 protein binding to CHO cells expressing human SIRPα (flow cytometry); conditions: for Blocking rate relative to pep-20 (%): blockade of peptides to hCD47 relative to parent pep-20, Table S4
T1 construct: Human or mouse CD47-IgV-Domain-hIg fusion proteins (20 nM, Sino Biological, China); purchased Sino Biological (hIg fusion); ACROBiosystems (biotinylated human CD47); host or cells: SIRPα partner: CHO cells stably expressing human SIRPα
Protocol: (§1) Human or mouse CD47-IgV-Domain-hIg fusion proteins (20 nM, Sino Biological, China), or biotinylated human CD47 protein (20 nM, ACROBiosystems, USA) was incubated with titrating concentrations of peptides or anti-human CD47 antibody (B6H12) in phosphate-buffered saline (PBS, pH 7.4) for 1 hour at 4°C. The mixture was incubated with human or mice SIRPα overexpressed Chinese hamster ovary cells for 30 min at 4°C, washed to remove unbound mixtures and phycoerythrin (PE)-conjugated goat anti-human IgG or PE-conjugated streptavidin was incubated (eBioscience, USA). Cells were then analyzed by flow cytometry (BD Biosciences, USA). The IC50 was determined from sigmoidal dose response curves illustrated by GraphPad Prism.

[2] = target: T2, human CD47-IgV-Domain protein (Homo sapiens, UniProt Q08722); experiment: MST binding assay to human CD47-IgV-Domain protein
T2 construct: Human or mouse CD47-IgV-Domain proteins were labeled with NT-647 dye
Protocol: (§2) Human or mouse CD47-IgV-Domain proteins were labeled with NT-647 dye following the microscale thermophoresis (MST) assay protocol, and the labeled protein used for each assay was about 50 to 200 nM. Unlabeled peptides or ligand protein solution was diluted for appropriate concentration serially in buffer (50 mM Tris, 150 mM NaCl, 10 mM MgCl2, 0.05% Tween-20, 0.5% DMSO and pH 7.5). The labeled proteins were then added to peptides or ligand protein solutions by 1∶1 (v/v). The samples were loaded into silica capillaries after incubation at room temperature for 30 min. Binding constants were determined by the MST assay according to manufacturer’s instructions with 20% or 40% light emitting diode (LED) power, 40% MST power at 25°C (Nano Temper, Monolith NT.115, Germany). Data analysis were performed by using a Nanotemper Analysis software.

[3] = target: T3, mouse CD47-IgV-Domain protein (Mus musculus, UniProt Q61735); experiment: MST binding assay to mouse CD47-IgV-Domain protein; conditions: figure 1B, read-out: KD, pep-20/mCD47
T3 construct: Human or mouse CD47-IgV-Domain proteins were labeled with NT-647 dye
T3 sequence (Q61735 19-125 limits assumed): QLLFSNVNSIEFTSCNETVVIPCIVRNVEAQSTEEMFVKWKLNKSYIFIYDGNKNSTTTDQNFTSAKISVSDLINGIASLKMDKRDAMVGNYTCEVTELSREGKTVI
Protocol: as §2

[4] = Pharmacokinetic assay in vivo; conditions: C57BL/6, mouse, plasma, iv, 40 mg/kg
Protocol: (E, F) The pharmacokinetic analysis
(§3) of pep-20 and pep- 20-D12. The plasma concentration-time curve of pep-20 (E) and
Data are represented as means ± SEM.
Pharmacokinetic assays in vivo 140
(§4) C57BL/6 mice with weight of 18-20 g were administrated with a single 141
(§5) intravenous dose of 40 mg/kg of peptides. Blood samples were collected an d 142
(§6) centrifuged at 8000 rpm for 10 min at the indicated intervals. Plasma wa s 143
(§7) further mixed with 10% HClO4 at a ratio of 2∶1 (v/v) and centrifuged at 16,000 144
(§8) rpm for 10 min. The supernatant was analyzed by RP-HPLC. The 145 pharmacokinetic parameters of peptides were determined by 146 noncompartmental analysis (NCA) using Phoenix WinNonlin software program 147 5.2.1 (Certara, Princeton, USA). The maximum plasma concentration Cmax and 148 elimination half-life (T1/2) were calculated.

C57BL/6 naïve mice = experiment: Mouse toxicity assays in normal mice; type: in vivo, C57BL/6 mice
Protocol: toxicity analysis. Normal C57BL/6 mice were injected s.c. with 2 mg/kg of pep-20 or normal saline as the negative control daily from day 1 to 14 ( n = 5). On days 0 and 14, hematologic parameters were analyzed. Red blood cell count (A), hemoglobin level ( B) have no significant difference between pep-20 group and control group. (C) Representative H&E staining images of pep-20 treated. Normal C57BL/6 mice were injected s.c. with 2 mg/kg of pep-20 or normal saline as the negative control daily for 14 days (n = 5). The mouse primary organs of heart, liver, spleen, lung, kidney and thymus […]
Table S2. Organ coefficients analysis of pep-20-treated mice.
Heart Liver Spleen Lung Kidney thymus
Normal C57BL/6 mice were injected s.c. with 2 mg/kg pep-20 or normal saline as the negative control daily for 14 days (n = 5). The mice organ tissues were stripped for organ […]
Table S3. Hepatic damage analysis of pep-20-treated mice. […]
negative control daily for 14 days (n = 5). Mice serum samples were collected and hepatic damage analysis were performed for standard aspartate aminotransferase assay (AST) and alanine aminotransferase assay (ALT).
111 Mouse toxicity assays
112 Normal C57BL/6 mice were injected s.c. with 2 mg/kg peptides or normal 113 saline as the negative control daily from day 1 to 14 (n = 5). On days 0 and 14, 114 mice blood samples were collected via retro-orbital bleed. […]
116 Hematologic and blood biochemical parameters were analyzed by ADVIA 117 2120i Hematology Analyzer (Siemens, Germany). […]

in vivo = conditions: C57BL/6, mouse, iv, 40 mg/kg
Protocol: (E, F) The pharmacokinetic analysis
as §3
Data are represented as means ± SEM.
Pharmacokinetic assays in vivo 140
as §4, §5, §6, §7, §8

[5] = target: T4, mouse CD47/SIRPα interaction (Mus musculus, UniProt Q61735); experiment: Blocking assay, mouse CD47-IgV-Domain-hIg binding to CHO cells expressing mouse SIRPα (flow cytometry); conditions: figure 1D, approximately
T4 construct: Human or mouse CD47-IgV-Domain-hIg fusion proteins (20 nM, Sino Biological, China); purchased Sino Biological; host or cells: SIRPα partner: CHO cells stably expressing mouse SIRPα
T4 sequence (Q61735 19-125 limits assumed): T3 sequence (Q61735 19-125 limits assumed)
Protocol: as §1

[6] = Solubility as observed in the binding assay; type: physicochemical; conditions: higher titrating concentrations for the MST binding assay could not be used
Protocol: To assess the affinity of these candidate peptides toward human CD47, the preliminary binding assay was performed. […] In addition, due to the presence of consensus sequences, it can be hypothesized that the peptides pep-5, pep-9 and pep-19 may have higher affinities.
Table S1. Amino acid sequences and binding activity of selected peptides.
Name Peptide sequence Frequency (n/43) KD (μM)
Peptides targeting hCD47 were obtained by bio-panning, the affinity of peptides to hCD47

[7] = preliminary binding assay, Table S1, NT-647 labeled hCD47, 50 mM Tris, 150 mM NaCl, 10 mM MgCl2, 0.05% Tween-20, 0.5% DMSO, pH 7.5, 25°C, read-out: KD
[8] = 2 mg/kg s.c. daily over 14 days, days 0 and 14, n = 5

T1 sequence (Q08722 19-127 limits assumed): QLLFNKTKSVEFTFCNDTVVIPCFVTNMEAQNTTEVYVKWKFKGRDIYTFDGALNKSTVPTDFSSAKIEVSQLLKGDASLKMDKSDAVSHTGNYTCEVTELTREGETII
T2 sequence (Q08722 19-127 limits assumed): as above

- Blocking rate relative to pep-20 (%) [1]: 83%
Molecule: C[C@H](NC(=O)[C@H](CO)NC(=O)[C@H](Cc1c[nH]c2ccccc12)NC(=O)[C@@H](C)N)C(=O)N[C@H](C(=O)N[C@@H](Cc1c[nH]c2ccccc12)C(=O)N[C@@H](CO)C(=O)N[C@@H](CC(N)=O)C(=O)N[C@@H](Cc1ccc(O)cc1)C(=O)N[C@@H](Cc1c[nH]c2ccccc12)C(=O)N[C@@H](CCCNC(=N)N)C(=O)N[C@H](Cc1c[nH]cn1)C(=O)O)[C@@H](C)O [pep-20-D2] (H-[dA]WSATWSNYWR[dH]-OH)

- Blocking rate relative to pep-20 (%) [1]: 75%
Molecule: C[C@H](NC(=O)[C@H](CO)NC(=O)[C@H](Cc1c[nH]c2ccccc12)NC(=O)[C@@H](C)N)C(=O)N[C@H](C(=O)N[C@@H](Cc1c[nH]c2ccccc12)C(=O)N[C@@H](CO)C(=O)N[C@@H](CC(N)=O)C(=O)N[C@@H](Cc1ccc(O)cc1)C(=O)N[C@@H](Cc1c[nH]c2ccccc12)C(=O)N[C@H](CCCNC(=N)N)C(=O)N[C@H](Cc1c[nH]cn1)C(=O)O)[C@@H](C)O [pep-20-D3] (H-[dA]WSATWSNYW[dR][dH]-OH)

- Blocking rate relative to pep-20 (%) [1]: 96%
Molecule: C[C@H](NC(=O)[C@H](CO)NC(=O)[C@H](Cc1c[nH]c2ccccc12)NC(=O)[C@@H](C)N)C(=O)N[C@H](C(=O)N[C@@H](Cc1c[nH]c2ccccc12)C(=O)N[C@@H](CO)C(=O)N[C@@H](CC(N)=O)C(=O)N[C@@H](Cc1ccc(O)cc1)C(=O)N[C@H](Cc1c[nH]c2ccccc12)C(=O)N[C@H](CCCNC(=N)N)C(=O)N[C@H](Cc1c[nH]cn1)C(=O)O)[C@@H](C)O [pep-20-D4] (H-[dA]WSATWSNY[dW][dR][dH]-OH)

- Kd [2, 7]: 14.7 ± 20 µM
Molecule: ASFSSYNRGYMY [pep-15]

- Kd [2, 7]: 161 ± 111 µM
Molecule: ASYTDWWRNRLQ [pep-18]

Molecule: AWSATWSNYWRH [pep-20]
- IC50 ([1]; 20 nM human CD47-IgV-Domain-hIg, CHO cells expressing human SIRPα, flow cytometry, figure 1C): 24.6 µM
- Blocking rate relative to pep-20 (%) [1]: 100%
- Kd [3]: 3.63 ± 1.71 µM
- Cmax [4]: 33.6 µg/mL
- Organ coefficient, Spleen (C57BL/6 naïve mice; 2 mg/kg s.c. daily for 14 days, n = 5, NS 0.3±0.04): 0.31±0.3
- Organ coefficient, thymus (C57BL/6 naïve mice; 2 mg/kg s.c. daily for 14 days, n = 5, NS 0.42±0.06): 0.36±0.07
- Organ coefficient, Heart (C57BL/6 naïve mice; 2 mg/kg s.c. daily for 14 days, n = 5, NS 0.55±0.03): 0.58±0.05
- Organ coefficient, Lung (C57BL/6 naïve mice; 2 mg/kg s.c. daily for 14 days, n = 5, NS 0.76±0.19): 0.77±0.18
- Organ coefficient, Kidney (C57BL/6 naïve mice; 2 mg/kg s.c. daily for 14 days, n = 5, NS 1.15±0.05): 1.14±0.06
- Organ coefficient, Liver (C57BL/6 naïve mice; 2 mg/kg s.c. daily for 14 days, n = 5, NS 5.02±0.3): 5.01±0.16
- Histopathology, H&E staining of major organs (C57BL/6 naïve mice; 2 mg/kg s.c. daily for 14 days, heart, liver, spleen, lung, kidney, thymus): no abnormalities
- Hemoglobin level (C57BL/6 naïve mice; [8]): no significant differences
- Red blood cell count (C57BL/6 naïve mice; [8]): no significant differences
- ALT (C57BL/6 naïve mice; serum, 2 mg/kg s.c. daily for 14 days, n = 5, NS 6.79±0.92): 7.03±0.86
- AST (C57BL/6 naïve mice; serum, 2 mg/kg s.c. daily for 14 days, n = 5, NS 23.40±4.41): 28.41±5.08
- half-life (in vivo): 35.4 min
- Kd ([2]; human CD47-IgV-Domain protein, figure 1A, read-out: KD, pep-20/hCD47): 2.91 ± 1.04 µM
- Kd [2, 7]: 3.19 ± 2.27 µM
- IC50 [5]: ~12 µM

- Kd [2, 7]: 9.27 ± 15.1 µM
Molecule: DRIPKIPGLPVL [pep-6]

- Kd [2, 7]: 5.32 µM
Molecule: GNKLTQLAASMM [pep-4]

- Solubility [6]: poor solubility
Molecule: GTYSNYVSHINN [pep-9]

- Kd [2, 7]: > 500 µM
Molecule: KLLPSLPSVSRN [pep-14]

- Solubility [6]: poor solubility
Molecule: LPHYIYETLPVR [pep-5]

- Kd [2, 7]: 10.7 ± 8.89 µM
Molecule: LYAGKLERISRG [pep-16]

- Kd [2, 7]: 0.67 µM
Molecule: TDLRYKEHYLYL [pep-3]

- Kd [2, 7]: 49.9 ± 54.8 µM
Molecule: VSPLELADNPMY [pep-10]

- Solubility [6]: poor solubility
Molecule: VSYKEHDMLYSF [pep-19]
